Measured values reported in PubChem BioAssay AID304 (DTP/NCI, 2004).
Where “and” joins values, the source holds several entries; their conditions need not be identical. Equal values may be shown once. Inconclusive results and toxic doses are left out.

Test system: Lymphosarcoma Mecca ip in C3AKF1 mice, survival T/C%
Test: NCI In Vivo Anticancer Drug Screen. Data for tumor model Lymphosarcoma Mecca (intraperitoneal) in C3AKF1 (CHKRF1) mice
Conditions: endpoint: survival time, mean or median, schedule: Q01DX010 (ip), higher = longer survival
Protocol: The antitumor activity of compounds was measured in mice bearing transplantable tumors. Survival or tumor size were measured and the results are expressed as the measurement made in the treated group (T) divided by the measurement made in the vehicle treated control group (C). The tumor model used in this assay is Lymphosarcoma Mecca (intraperitoneal) in C3AKF1 (CHKRF1) mice

[1] = dose: 12.5 mg/kg/injection, vehicle: saline
[2] = dose: 25.0 mg/kg/injection, vehicle: saline

CN(C)c1nc(N(C)C)nc(N(C)C)n1
T/C (dose: 18.8 mg/kg/injection, vehicle: saline): 105 % of control
T/C (dose: 37.5 mg/kg/injection, vehicle: saline): 100 % of control
T/C (dose: 75.0 mg/kg/injection, vehicle: saline): 100 % of control and 111 % of control
T/C (dose: 150.0 mg/kg/injection, vehicle: saline): 105 % of control and 111 % of control

Nc1nc(N)c2nc(CNc3ccc(C(=O)NC(CCC(=O)O)C(=O)O)cc3)cnc2n1 (stereo unspecified)
T/C (dose: 0.1 mg/kg/injection, vehicle: other): 162 % of control and 215 % of control
T/C (dose: 0.2 mg/kg/injection, vehicle: other): 155 % of control and 190 % of control

CC(CCC(C)OS(C)(=O)=O)OS(C)(=O)=O (stereo unspecified)
T/C (dose: 4.0 mg/kg/injection, vehicle: saline): 109 % of control
T/C (dose: 8.0 mg/kg/injection, vehicle: saline): 100 % of control
T/C (dose: 16.0 mg/kg/injection, vehicle: saline): 114 % of control
T/C (dose: 32.0 mg/kg/injection, vehicle: saline): 95 % of control

CS(=O)(=O)OCCC(=O)N1CCN(C(=O)CCOS(C)(=O)=O)CC1
T/C [1]: 120 % of control
T/C [2]: 105 % of control and 110 % of control
T/C (dose: 100.0 mg/kg/injection, vehicle: saline): 160 % of control

CN(C)/N=N/c1nc[nH]c1C(N)=O
T/C (dose: 400.0 mg/kg/injection, vehicle: saline): 155 % of control

C[C@H]1C(=O)O[C@@H]2CCN3CC=C(COC(=O)[C@](C)(O)[C@@]1(C)O)[C@H]23
T/C (dose: 3.13 mg/kg/injection, vehicle: saline): 109 % of control and 115 % of control
T/C (dose: 6.25 mg/kg/injection, vehicle: saline): 95 % of control and 109 % of control
T/C [1]: 105 % of control and 118 % of control
T/C [2]: 109 % of control and 115 % of control

S=P(N1CCOCC1)(N1CC1)N1CC1
T/C (dose: 2.5 mg/kg/injection, vehicle: saline): 88 % of control
T/C (dose: 5.0 mg/kg/injection, vehicle: saline): 88 % of control
T/C (dose: 10.0 mg/kg/injection, vehicle: saline): 88 % of control
